Patent publication EP2682119A1, “Aromatic N-heterocycle derivatives for use as medicine” (Université Libre de Bruxelles, priority 2012, dated 2014)
Where a name gives a salt, the structure may show the parent alone. Read-outs that look alike come from different tables or passages of the source.

How the values were obtained:
recombinant MPO = target: T1, recombinant MPO (Homo sapiens, UniProt P05164); assay: Myeloperoxidase inhibition (MPO) assay, taurine chloramine production by the MPO/H2O2/Cl- system; assay type: biochemical; settings: for inhibition properties against myeloperoxidase enzyme: compared with the corresponding compound wherein the fluor atom is at position 5 on the indole ring
T1 construct: made in house
T1 sequence (P05164 49-745): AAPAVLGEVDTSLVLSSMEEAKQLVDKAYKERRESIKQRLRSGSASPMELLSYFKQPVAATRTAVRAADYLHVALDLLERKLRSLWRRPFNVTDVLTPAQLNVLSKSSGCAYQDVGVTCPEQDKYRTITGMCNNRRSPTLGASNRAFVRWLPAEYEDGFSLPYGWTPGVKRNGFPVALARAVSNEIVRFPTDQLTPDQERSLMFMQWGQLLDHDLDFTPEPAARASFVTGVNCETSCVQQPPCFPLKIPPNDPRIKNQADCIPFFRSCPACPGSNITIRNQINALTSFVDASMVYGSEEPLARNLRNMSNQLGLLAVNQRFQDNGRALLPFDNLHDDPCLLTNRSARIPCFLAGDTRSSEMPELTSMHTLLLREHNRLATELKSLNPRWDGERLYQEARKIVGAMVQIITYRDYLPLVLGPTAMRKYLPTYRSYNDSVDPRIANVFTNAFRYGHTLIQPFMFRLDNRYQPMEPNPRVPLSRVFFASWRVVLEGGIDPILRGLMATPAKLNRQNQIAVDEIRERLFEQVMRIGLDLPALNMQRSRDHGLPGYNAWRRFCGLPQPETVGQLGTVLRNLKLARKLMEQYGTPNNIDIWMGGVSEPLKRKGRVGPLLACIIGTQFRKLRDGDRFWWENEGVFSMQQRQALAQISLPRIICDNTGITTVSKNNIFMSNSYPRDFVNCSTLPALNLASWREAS
Procedure: Myeloperoxidase inhibition (MPO) assay procedure
The assay was based on the production of taurine chloramine produced by the MPO/H2O2/Cl- system in the presence of a selected inhibitor at defined concentration. The reaction mixture contained the following reagents in a final volume of 200 µL: pH 7.4 phosphate buffer (10 mM PO4^3-/300 mM NaCl), taurine (15 mM), the compound to be tested (up to 20 µM), and the fixed amount of the recombinant MPO (6.6 µL of MPO batch solution diluted 2.5 times, 40 nM). When necessary, the volume was adjusted with water. This mixture was incubated at 37 °C and the reaction initiated with 10.0 µL of H2O2 (100 µM). After 5 min, the reaction was stopped by the addition of 10 µL of catalase (8 U/µL).
(§1) Recombinant MPO was prepared as previously described. Each batch solution is characterized by its protein concentration (mg/mL), its activity (U/mL), and its specific activity (U/mg). The chlorination activity was determined according to Hewson and Hager. […] The different steps were carried out in the dark, and the protein concentration was measured by the Lowry assay for both MPO and LDL.

[1] = target: T2, LDL oxidation carried out by MPO (Homo sapiens, UniProt P05164); assay: Inhibition of LDL oxidation by MPO, ELISA with Mab AG9; assay type: biochemical
T2 construct: made in house
T2 sequence (P05164 49-745): T1 sequence (P05164 49-745)
Procedure: Low-density lipoproteins oxidation inhibition
Preparation of the Recombinant Enzyme and of LDL
as §1
Inhibition of LDL Oxidation
LDL oxidation was carried out at 37 °C in a final volume of 500 µL. The reaction mixture contained the following reagents at the final concentrations indicated between brackets: pH 7.2, PBS buffer, MPO (1 µg/mL), LDL (1000 µg/mL), 2 µL 1 N HCl (4 mM), one of the drugs at different concentrations, and H2O2 (100 µM). The reaction was stopped after 5 min by cooling the tubes in ice. The assay was performed as described by Moguilevsky et al. in a NUNC maxisorp plate (VWR, Zaventem, Belgium): 200 ng/well of LDL was coated overnight at 4 °C in a sodium bicarbonate pH 9.8 buffer (100 µL) Afterward, the plate was washed with TBS 80 buffer and then saturated during 1 h at 37 °C with the PBS buffer containing 1% BSA (150 µL/well). […] After incubation for 1 h at 37 °C, the plate was washed four times with the TBS 80 buffer and a 3000 times diluted solution of IgG antimouse alkaline phosphatase (Promega, Leiden, The Netherlands) in the same buffer was added (100 µL/well). The wells were washed again four times and a revelation solution (150 µL/well) containing 5 mg of para-nitrophenyl phosphate in 5 mL of diethanolamine buffer was added for 30 min at room temperature. The reaction was stopped with 60 µL/well of 3 N NaOH solution. […] Results were expressed as IC50.

[2] = target: T3, human 5-HT transporter (hSERT) (Homo sapiens, UniProt P31645); assay: 5-HT reuptake inhibition, [3H]5-HT uptake in transfected HEK-293 MSR cells; assay type: cell-based; settings: serotonin reuptake inhibition
T3 construct: expressed in transfected cells; host or cells: HEK-293 MSR cells (Invitrogen), plasmid pcDNA3.1-hSERT
T3 sequence (P31645 whole entry): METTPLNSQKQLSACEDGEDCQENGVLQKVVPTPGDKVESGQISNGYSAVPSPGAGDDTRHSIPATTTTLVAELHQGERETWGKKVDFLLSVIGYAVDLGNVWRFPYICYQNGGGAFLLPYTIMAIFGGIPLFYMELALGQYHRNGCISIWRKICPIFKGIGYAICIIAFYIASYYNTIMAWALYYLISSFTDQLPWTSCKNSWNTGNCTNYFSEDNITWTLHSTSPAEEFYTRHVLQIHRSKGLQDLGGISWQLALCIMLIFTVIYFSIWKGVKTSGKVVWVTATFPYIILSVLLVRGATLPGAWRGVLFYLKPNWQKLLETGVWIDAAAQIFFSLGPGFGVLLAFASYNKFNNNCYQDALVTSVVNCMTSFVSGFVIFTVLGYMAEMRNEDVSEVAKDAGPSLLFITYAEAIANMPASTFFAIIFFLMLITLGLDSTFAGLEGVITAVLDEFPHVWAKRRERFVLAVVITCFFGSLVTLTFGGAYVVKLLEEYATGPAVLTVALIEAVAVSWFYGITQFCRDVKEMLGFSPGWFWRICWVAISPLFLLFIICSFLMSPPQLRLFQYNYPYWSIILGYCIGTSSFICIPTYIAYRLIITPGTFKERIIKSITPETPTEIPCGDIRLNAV
Procedure: Assesment of 5-HT reuptake inhibition.
Inhibition assessment of 5-HT reuptake was performed as follows. The mammalian expression plasmid pcDNA3.1 containing human 5-HT transporter (hSERT) cDNA has been described previously. HEK-293 MSR cells (Invitrogen) were cultured as monolayers in Dulbecco's modified Eagle's medium (BioWhitaker) supplemented with 10% fetal calf serum (Invitrogen), 100 units/mL penicillin, 100 µg/mL streptomycin (BioWhitaker) and 6 µg/mL Geneticin (Invitrogen) at 95% humidity, 5% p(CO2) and 37°C. Cells were detached from the culture flasks by Versene (Invitrogen) and trypsin/EDTA (BioWhitaker) treatment for subculturing or seeding into white TC-microtiter plates (Nunc). Transfection and measurement of [^3H]5-HT (PerkinElmer Life Sciences) uptake was performed as described by Larsen et al. (2004) except that HEK-293 MSR cells (Invitrogen) were used instead of COS-1 cells.

[3] = inhibition of myeloperoxidase enzyme, Table 1, compounds of the invention, read-out: IC50
[4] = inhibition of LDL oxidation, Table 2, read-out: IC50
[5] = Table 3, 3-amidoindole analogues, read-out: MPO IC50
[6] = Table 3, 3-amidoindole analogues, oxidation of LDL, read-out: Mox LDL IC50

Compound	IC50 (recombinant MPO; [3]) [nM]	IC50 [1, 4] [nM]	IC50 (recombinant MPO; [5]) [nM]	IC50 [1, 6] [nM]	Ki [2] [nM]	inhibition properties against myeloperoxidase enzyme (recombinant MPO)
NCCSCCc1c[nH]c2ccc(F)cc12 [Compound 32, 3-(2-(2-Aminoethylthio)ethyl)-5-fluoro-1H-indole oxalate]	4	8				
CNC(=O)CCCc1c[nH]c2ccc(F)cc12 [Compound 59, 3-(4-(N-methyl, butylamido))-5-fluoro-1H-indole]			40	95		
NCCSCCCc1c[nH]c2ccc(F)cc12 [Compound 33, 3-(3-(2-Aminoethylthio)propyl)-5-fluoro-1H-indole oxalate]		21				
NC(=O)CCCc1c[nH]c2c(F)cccc12 [Compound 54, 3-(4-(butylamido))-7-fluoro-1H-indole]		24	26	24		
ONCCCc1c[nH]c2ccc(F)cc12 [Compound 45, 3-(3-N-Hydroxylaminopropyl)-5-fluoro-1H-indole]	11	21			20	
N#CSCCCc1c[nH]c2ccc(F)cc12 [Compound 34, 5-Fluoro-3-(3-thiocyanatopropyl) 1H-indole]	5	23			212	
NC(=O)CCCCc1c[nH]c2ccc(F)cc12 [Compound 58, 3-(5-(pentylamido)) -5-fluoro-1H-indole]			35	44		
NCCc1c[nH]c2c(F)cccc12.O=C(O)C(=O)O [Compound 26, 3-(2-Aminoethyl)-7-fluoro-1H-indole oxalate]						enhanced inhibition properties
CCN(CCc1c[nH]c2ccc(F)cc12)S(C)(=O)=O [Compound 35, 5-Fluoro-3-(2-(N-ethylmethanesulfonamido)ethyl)-1H-indole]	14	27			174	
NCCSCCc1c[nH]c2c(F)cccc12 [Compound 43, 3-(2-(2-Aminoethylthio)ethyl)-7-fluoro-1H-indole oxalate]	3	6			25	
NC(=O)CCCc1c[nH]c2ccc(F)cc12 [Compound 56, 3-(4-(Butylamido))-5-fluoro-1H-indole]	18	18	18	18	631	
NCCCCc1c[nH]c2c(F)cccc12 [Compound 30, 3-(4-Aminobutyl)-7-fluoro-1H-indole oxalate]	6	21				
NCCCc1c[nH]c2c(F)cccc12.O=C(O)C(=O)O [Compound 27, 3-(3-Aminopropyl)-7-fluoro-1H-indole oxalate]						enhanced inhibition properties
CCN(CCCc1c[nH]c2ccc(F)cc12)S(C)(=O)=O [Compound 36, 5-Fluoro-3-(3-(N-ethylmethanesulfonamido)propyl)-1H-indole]		27				
NC(=O)CCCCc1c[nH]c2c(F)cccc12 [Compound 57, 3-(5-(pentylamido)) -7-fluoro-1H-indole]			39	43		
